The values that follow come from US20230280275A1, “PHOTOACTIVATABLE VIBRATIONAL PROBES AND USES THEREOF” (California Institute of Technology, priority 2021, published 2023).

The nature of series [1]: Spontaneous Raman / hyperspectral SRS spectroscopy of probes and uncaged alkynes. The series is classed as physicochemical. To be noted: for Raman Peak: cell silent region, model systems; for RIE (relative Raman intensity to EdU): 10 mM EdU (H2O) as standard. The source says:
(§1) An integrated laser (picoEMERALD, Applied Physics and Electronics, Inc.) was used as a light source for both pump and Stokes beams. It produces 2 ps pump (tunable from 770 nm - 990 nm, bandwidth 0.5 nm, spectral bandwidth ~ 7 cm-1 ) and Stokes (1031.2 nm, spectral bandwidth 10 cm-1 ) beams with 80 MHz repetition rate. Stokes beam is modulated at 20 MHz by an internal electro-optic modulator. The spatially and temporally overlapped pump and Stokes beams are introduced into an inverted multiphoton laser scanning microscopy (FV3000, Olympus), and then focused onto the sample by a 25X water objective (XLPLN25XWMP, 1.05 N.A., Olympus). Transmitted pump and Stokes beams are collected by a high N.A. condenser lens (oil immersion, 1.4 N.A., Olympus) and pass through a bandpass filter (893/209 BrightLine, 25 mm, AVR Optics) to filter out Stokes beam. A large area (10×10 mm) Si photodiode (S3590-09, Hamamatsu) is used to measure the remaining pump beam intensity. 64 V DC voltage was used on the photodiode to increase saturation threshold and reduce response time. The output current is terminated by a 50 Ω terminator and pre-filtered by an 19.2-23.6-MHz band-pass filter (BBP-21.4+, Mini-Circuits) to reduce laser and scanning noise. The signal is then demodulated by a lock-in amplifier (SR844, Stanford Research Systems) at the modulation frequency. The in-phase X output is fed back to the Olympus IO interface box (FV30-ANALOG) of the microscope. Image acquisition speed is limited by 30 µs time constant set for the lock-in amplifier. Correspondingly, we use 80 µs pixel dwell time, which gives a speed of 8.5 s frame-1 for a 320-by-320-pixel field of view. Laser powers are monitored through image acquisition by an internal power meter and power fluctuation are controlled within 5% by the laser system. 16-bit grey scale images are acquired by Fluoview software. SRS spectra were acquired by fixing the Stokes beam at 1031.2 nm and scanning the pump beam through the designated wavelength range point by point. 10 mM EdU (H2O) sample was used as a standard to give RIE of different probes. Fluorescence images were collected using the same Olympus FV3000 confocal microscope with CW laser excitation (405, 488, 561 and 640 nm, Coherent OBIS LX laser) and standard bandpass filter sets. The correlation coefficients (Pearson’s R value) between SRS images and fluorescence images were calculated using ‘Coloc 2’ tool of ImageJ.
To perform spontaneous Raman spectroscopy, spontaneous Raman spectra were acquired using an upright confocal Raman spectrometer (Horiba Raman microscope; Xplora plus). A 532 nm YAG laser is used to illuminate the sample with a power of 12 mW on sample through a 100 x, N.A. 0.9 objective (MPLANN; Olympus) with 100 µm slit and 500 µm hole. Spectro/Raman shift center was set to be 2000.04 cm-1 . With a 1200 grating, Raman shift ranges from 690.81 cm-1 to 3141.49 cm-1 was acquired to cover whole biological relevant Raman peaks. The acquired spectra were processed by the LabSpec 6 software for baseline correction.
Cyclopropenone caging has been previously adopted for photoactivation and subsequent biorthogonal labeling of fluorophores in fluorescence microscopy. […] Herein the alkyne Raman signal generation from photo-DIBO light-activation was first measured (FIG. 1A). […] Compared to 5-ethynyl-2′-deoxyuridine (EdU), the well-adopted benchmark for Raman intensity quantification, the relative Raman intensity to EdU (RIE) of the strained alkyne DIBO is only 1.8 (Table 1). […] Given this, it is reasoned that diphenylcyclopropenone (i.e. cyclopropenone-caged 1-yne, 1-cyclo, 1, FIG. 1A) should be a better photoactivatable Raman scaffold with higher Raman sensitivity after uncaging. Indeed, UV-uncaging of 1-cyclo (1), which started from a similarly weak Raman peak at 1860 cm^-1 from photo-DIBO, produced an intense sharp peak for 1-yne (2) at 2226 cm^-1 (FIG. 1B, dashed black vs solid blue spectra) with an improved RIE values to about 4

The nature of series [2]: UV-Vis absorption spectra. The series is classed as physicochemical. To be noted: 20 uM in DMSO. The procedure:
UV-Vis absorption spectra were recorded on a Varian Cary 50 UV-Vis Spectrophotometer (Agilent).

A short description of series [3]: Photoactivation (UV-uncaging) monitored by time-series spontaneous Raman spectra. The series is classed as physicochemical. Here is the method: The 365 nm UV light used to activate cyclopropenones comes from a UV handlamp (Analytik Jena UVP EL Series Lamp, UVLS-24, 4 Watt, 2 UV 254/365 nm, typically used for TLC monitoring in organic synthesis). The power of 365 nm UV of this handlamp was measured to be 15 mW/cm2 on samples.
Next, the photo-uncaging kinetics for both 1-cyclo (1) and 2-cyclo (3) were compared. […] With 365 nm lamp illumination, the characteristic peaks of cyclopropenones (~1860 cm^-1) continue to drop while the alkyne peaks (2226 cm^-1) gradually increase for both molecules (FIG. 1D). […] The progression of the UV-activation reactions could also be confirmed by the change in the corresponding absorption spectra (FIG. 6).

Another series concerns lipid droplets. Nature of the series: Live-cell photo-uncaging lipid droplets imaging, SRS/fluorescence co-localization. The series is classed as cell-based. As to conditions: live HeLa cells, SRS vs Lipid spot 610.
Excerpt: as §1
Lipid droplets imaging by Me-LD (15): Cells were incubated in 20 µM Me-LD (15) with complete DMEM medium for 30 minutes in the incubator. Cells were washed with PBS three times before imaging. For colocalization, 0.5 x LipidSpot™ 610 (Biotium, #70069) was used to stain cells for 20 minutes. For photo-uncaging, 405 nm laser was used to scan the selected field of view for 2 minutes (1.6 mW).
Lipid droplets imaging by Cyclo-LD (17): Cells were washed with PBS for three times before labeling. Cells were then incubated in 20 µM Cyclo-LD (17) with PBS for 30 minutes in the incubator. Cells were washed with PBS three times before imaging. For colocalization, 0.5 x LipidSpot™ 610 (Biotium, #70069) was used to stain cells for 20 minutes. For photo-uncaging, 405 nm laser (1.6 mW) was used to scan the selected field of view for 2 minutes.

Another series relates to live HeLa cells. The series is described as follows: SRS imaging of live HeLa cells incubated with unmethylated probes before and after 405 nm illumination. The series is classed as cell-based. As to conditions: 20 µM, 30 minutes of labeling; 2226 cm^-1 channel after 405 nm. Here is the method:
FIG. 7 provides exemplary results from SRS imaging of live HeLa cells incubated with 1-cyclo (1, 20 µM, 30 minutes of labeling, top) and Cyclo-Mito (7, 20 µM, 30 minutes of labeling, bottom) at the CH3 (2940 cm^-1) channel, and the expected uncaged alkyne channel (2226 cm^-1) before and after 405 nm illumination. Scale bar: 10 µm.
An integrated laser (picoEMERALD, Applied Physics and Electronics, Inc.) was used as a light source for both pump and Stokes beams. It produces 2 ps pump (tunable from 770 nm - 990 nm, bandwidth 0.5 nm, spectral bandwidth ~ 7 cm-1 ) and Stokes (1031.2 nm, spectral bandwidth 10 cm-1 ) beams with 80 MHz repetition rate. Stokes beam is modulated at 20 MHz by an internal electro-optic modulator. […] Laser powers are monitored through image acquisition by an internal power meter and power fluctuation are controlled within 5% by the laser system. […] Fluorescence images were collected using the same Olympus FV3000 confocal microscope with CW laser excitation (405, 488, 561 and 640 nm, Coherent OBIS LX laser) and standard bandpass filter sets. The correlation coefficients (Pearson’s R value) between SRS images and fluorescence images were calculated using ‘Coloc 2’ tool of ImageJ.

Another series concerns endoplasmic reticulum. Nature of the series: Live-cell photo-uncaging ER imaging, SRS/fluorescence co-localization. The series is classed as cell-based. To be noted: live HeLa cells.
Excerpt: as §1
ER imaging: Cells were incubated in 40 µM Me-ER (14) with complete DMEM medium for 2 hours in the incubator. Cells were washed with PBS three times before imaging. For colocalization, 0.5 µM ER-Tracker™ Red (Invitrogen, E34250) was used to stain cells for 1 hour. For photo-uncaging, 405 nm laser was used to scan the selected field of view for 2 minutes (1.6 mW).

Another series concerns lysosomes. The series is described as follows: Live-cell photo-uncaging lysosomes imaging, SRS/fluorescence co-localization. The series is classed as cell-based.
Excerpt: as §1
Lysosomes imaging: Cells were incubated in 30 µM Me-Lyso (13) with complete DMEM medium for 2 hours in the incubator. Cells were washed with PBS three times before imaging. For colocalization, 0.4 x LysoView™ 488 (Biotium, #70067) was used to stain cells for 30 minutes. For photo-uncaging, 405 nm laser was used to scan the selected field of view for 2 minutes (1.6 mW).

Series [4] is described as follows: (HP)LC-MS for assessing the stability of cyclopropenone probes in physiological condition. To be noted: 10 mM cysteine (PBS), 37° C., HPLC trace. The series is classed as physicochemical. Here is the method: The assessed probe was first dissolved in DMSO and later diluted in 10 mM cysteine (Sigma, 168149, dissolved in PBS) solution or DMEM (Corning, 35-015-CV) medium. Analytical HPLC coupled with mass spectrometry (LC-MS) was performed on Agilent 1290 infinity LC system using ZORBAX RRHD Eclipse Plus C18, 95 Å, 2.1 x 50 mm, 1.8 µm column with Agilent 6140 Series Quadrupole LCMS / LC-MS / MSD / Mass Spectrometer System. The mobile phase is water (0.1% AcOH) and acetonitrile with running method of gradient 5%-95% acetonitrile (1 ml/min, 4 min for total running time). The mass spectrometry detection region ranges from 100 to 800 AMU. The data shown in the main figures and supplementary figures are the absorption (280.8 nm) intensity traces.
It was hypothesized that this was likely because the cyclopropenone structures are susceptible to nucleophilic attack, leading to ring-opened α,β-unsaturated acids derivatives. Cysteines, glutathione, and other biological thiols are strong nucleophiles and could easily deactivate cyclopropenones. The stability of 1-cyclo (1) in 10 mM cysteine phosphate-buffered saline (PBS) at 37° C. was therefore tested, mimicking physiological conditions.

Where [5] appears, read: SRS vs ER tracker red, Fl/2205 cm^-1 channel.
Where [6] appears, read: live HeLa cells, SRS vs Lysoview 488, Fl/2205 cm^-1 channel.

With `C(#Cc1ccccc1)c1ccccc1` [1-yne (2), diphenylacetylene], the “Raman Peak” value in series [1] stood at 2226 cm⁻¹. In series [2], the Abs worked out at 283 nm and the εabs turned out to be 32300 M⁻¹ cm⁻¹.

As for `O=c1c(C#Cc2ccccc2)c1-c1ccccc1` [2-cyclo (3), 2-phenyl-3-(phenylethynyl)cycloprop-2-en-1-one], in series [1], the “RIE (relative Raman intensity to EdU)” value was found to be 7.5 and the “Raman Peak” value stood at 2218 cm⁻¹. Also, in series [2], the Abs was determined as 324 nm and the εabs is 32400 M⁻¹ cm⁻¹. For the same compound, the uncaging kinetics k in series [3] (365 nm illumination (15 mW/cm^2), increase of alkyne peak 2226 cm^-1) came out at 0.020 s⁻¹. Further, the “uncaging kinetics, fold faster than 1-cyclo (1)” value in series [3] (365 nm lamp illumination) is reported as “about 5 fold”.

Take `O=c1c(C#Cc2ccccc2)c(C#Cc2ccccc2)c1=O` [3-cyclo (5), 3,4-Bis(phenylethynyl)-3-cyclobutene-1,2-dione]: in series [1], the “RIE (relative Raman intensity to EdU)” value came to 13 and the “Raman Peak” value was found to be 2194 cm⁻¹. In addition, in series [2], the Abs is 371 nm and the εabs was 25500 M⁻¹ cm⁻¹.

On to `O=c1c(-c2ccccc2)c1-c1ccc(OCCOCCOCCCCCCCl)cc1` [Cyclo-LD (17), 2-(4-(2-(2-((6-chlorohexyl)oxy)ethoxy)ethoxy)phenyl)-3-phenylcycloprop-2-en-1-one], for which, in the series with lipid droplets (Fl/2226 cm^-1 channel), the “correlation coefficient (Pearson's R value), set 1” value (shortened to “correlation coefficient … set 1”) was 0.50 and the “correlation coefficient (Pearson's R value), set 2” value (shortened to “correlation coefficient … set 2”) was found to be 0.76.

Turning to `O=c1c(-c2ccccc2)c1-c1ccc(OCCC[P+](c2ccccc2)(c2ccccc2)c2ccccc2)cc1.[Br-]` [Cyclo-Mito (7)], in the series on live HeLa cells, the “uncaging signals in labeled live cells” value was “did not produce any observable uncaging signals”.

Turning to `Cc1ccc(S(=O)(=O)NCCCOc2cc(C)c(-c3c(-c4c(C)cc(C)cc4C)c3=O)c(C)c2)cc1` [Me-ER (14)], the “targeting, photoactivation and imaging performances” value in the series with endoplasmic reticulum is “highly specific targeting”. Moreover, in the series on endoplasmic reticulum (setting [5]), the “correlation coefficient … set 1” value came to 0.86; the “correlation coefficient … set 2” value is reported as 0.80; the “correlation coefficient (Pearson's R value), set 3” value (shortened to “correlation coefficient … set 3”) is on record as 0.90.

Regarding `Cc1cc(C)c(-c2c(-c3c(C)cc(OCCOCCOCCCCCCCl)cc3C)c2=O)c(C)c1` [Me-LD (15)], in the series on lipid droplets (Fl/2205 cm^-1 channel), the “correlation coefficient … set 1” value is given as 0.54; the “correlation coefficient … set 2” value is reported as 0.54; the “correlation coefficient … set 3” value was 0.50.

Take `Cc1cc(C)c(-c2c(-c3c(C)cc(OCCN(C)C)cc3C)c2=O)c(C)c1` [Me-Lyso (13)]: in the series with lysosomes (setting [6]), the “correlation coefficient … set 1” value is given as 0.60; the “correlation coefficient … set 2” value turned out to be 0.67; the “correlation coefficient … set 3” value was 0.62. In addition, the “lysosomes targeting (co-localization)” value with lysosomes (live cells co-labeled with Lysoview 488) is “desired co-localization”.

Take `Cc1cc(C)c(-c2c(-c3c(C)cc(O)cc3C)c2=O)c(C)c1` [compound 8]: the “time stable to cysteine” value in series [4] was not below 24 h.

Take “dibenzocyclooctynes [DIBO, reference compound]”: in series [1], the “RIE (relative Raman intensity to EdU)” value was 1.8 and the “Raman Peak” value was determined as 2171 cm⁻¹. In series [2], this compound gave an Abs of 323 nm and a εabs of 24200 M⁻¹ cm⁻¹.
